Peptide text beside a SMILES is read from it.
Key:
hPSCs activated by TGF-β = test: Gene expression in TGF-β-activated hPSCs (qPCR, RT2 profiler PCR array); format: cell-based, human
Description: (§1) Quantitative real-time PCR
To examine the effect of peptides on the gene expression of hPSC activation markers, cells were seeded into a 12 well plate at a seeding density of 50,000 cells/well. After overnight incubation, cells were starved for 24 h, then treated with human recombinant 5 ng/mL TGF-β (Peprotech, […]
After 24 h of the incubation, cells were lysed and total RNA was isolated using GenElute™ Mammalian Total RNA Miniprep Kit (Sigma–Aldrich) and the RNA concentration was measured using a NanoDrop® ND-1000 Spectrophotometer (Thermo Scientific, Waltham, USA). cDNA was synthesized with iScript™ cDNA Synthesis Kit (BioRad, Veenendaal, The Netherlands), and 10 ng cDNA was used for each PCR reaction. The real-time PCR primers (Table S1) were purchased from Sigma–Aldrich. Quantitative real time PCR was performed with 2× SensiMix SYBR and Fluoroscein Kit (Bioline GmbH, Luckenwalde, Germany) using a BioRad CFX384 Real-Time PCR detection system (BioRad). Gene expression levels were normalized to the expression of the house-keeping gene 18s rRNA. […]
(§2) The next day, the medium […]
(§3) was changed with 0% FBS Stellate Cell medium to starve hPSCs for 24 h. Subsequently, hPSCs were incubated with 5 ng/mL TGF-β1 and peptide for 48 h to examine the effect on protein expression of different markers such as α-SMA and collagen-1. Cells were lysed using 1× blue loading buffer containing 1× DTT reducing agent (Cell Signaling Technology) and homogenized using ultrasonication. Protein lysates were separated on a 4%–20% Tris-Glycine gel (Thermo Scientific) and then transferred onto a PVDF membrane (Thermo Scientific). […]

[1] = tested on: hPSC activated with TGF-β; test: Inhibition of TGF-β-induced PSC activation (immunocytochemical staining, Western blot); format: cell-based, human; conditions: 5 ng/mL TGF-β, 48 h, peptides at 20 and 50 μmol/L
Description: secondary peroxidase labeled antibody was added and incubated for 1 h at RT. The HRP signal was developed using standard chemiluminescence kit and the signal was measured.
(§4) To evaluate the stability, 20 µmol/L peptide was incubated in 50% human plasma at biological temperature 37 °C for 1, 2, and 24 h. After incubation, plasma was precipitated by adding equal volume of 4% trichloroacetic acid (TCA) and rested on ice for 10 min. As control (or 0h), precipitation was performed immediately after mixing the peptide and plasma. Supernatant was collected after centrifugation at 13,300 × g and assessed using reversed phase high performance liquid chromatography (HPLC) with 5%, 95%, and 99.9% acetonitrile in de-gassed water with 0.1% trifluoroacetic acid as eluents. The remaining peptide was analyzed at a wavelength 280 nm.
as §1
To examine the effect of peptides on the gene expression of hPSC activation markers, cells were seeded into a 12 well plate at a seeding density of 50,000 cells/well. After overnight incubation, cells were starved for 24 h, then treated with human recombinant 5 ng/mL TGF-β (Peprotech, Hamburg, Germany) and […] peptide. After 24 h of the incubation, cells were lysed and total RNA was isolated using GenElute™ Mammalian Total RNA Miniprep Kit (Sigma–Aldrich) and the RNA concentration was measured using a NanoDrop® ND-1000 Spectrophotometer (Thermo Scientific, Waltham, USA). cDNA was synthesized with iScript™ cDNA Synthesis Kit (BioRad, Veenendaal, The Netherlands), and 10 ng cDNA was used for each PCR reaction. […] Quantitative real time PCR was performed with 2× SensiMix SYBR and Fluoroscein Kit (Bioline GmbH, Luckenwalde, Germany) using a BioRad CFX384 Real-Time PCR detection system (BioRad). […]
To evaluate the effect of peptides on the protein expression of hPSC activation markers, hPSCs were seeded into a 12 well plate at seeding density 50,000 cells/well. […] Proteins were detected with […]
medium. […] Images were analyzed using […]
secondary fluorescence-labeled antibody diluted in PBS. […]

hPSCs = test: Cell viability, Alamar blue assay; format: cell-based, human
Description: We investigated the inhibitory effect of both cyclic and linear peptides on PSC activation and signaling. To achieve this, PSCs were seeded and treated with TGF-β and peptides for 48 h (protein expression) or 24 h (gene expression). We also tested the effect of the peptide on the cell viability using Alamar blue assay and found no toxicity (Supporting Information Fig. S3A). […] To quantitate that, we performed Western blot analysis and confirmed the observed effect via immunostaining (Fig. 2B and C; Fig. S3B). The details of the antibodies used can be found in Supporting Information Table S2. […] After obtaining these effects, we focused on cyAV3.3 and examined its inhibitory effects on TGF-β1-stimulated PSCs using qPCR and an RT[2] profiler PCR array for ECM and adhesion receptors (Fig. 2D). […] The details of primers for all genes can be found in Supporting Information Table S3. […] In contrast, cyAV3.3 induced the gene expression of ECM-degrading proteins such as MMP10 and ADAMTS-13 (Supporting Information Fig. S4).

[2] = Peptide stability in human plasma; format: in vitro ADME; conditions: 20 µmol/L peptide, 50% human plasma, 37 °C, 1, 2 and 24 h, TCA precipitation, RP-HPLC UV 280 nm
Description: as §4
Quantitative real-time PCR […]
as §2, §3

In the case of C[C@@H]1NC(=O)[C@H](CCCNC(=N)N)NC(=O)[C@H](Cc2ccc(O)cc2)NC(=O)[C@H](Cc2ccc(O)cc2)NC(=O)[C@H](CCCNC(=N)N)NC(=O)CNC(=O)[C@H](CCCCN)NC(=O)[C@H](Cc2ccc(O)cc2)NC(=O)[C@H]([C@@H](C)O)NC1=O [cyAV3.3] (cyclo(ATYKGRYYR)), the “gene expression of FN and ITGA5” value (hPSCs activated by TGF-β; hPSCs activated by TGF-β, cyAV3.3 50 μmol/L, 24 h, qPCR) is reported as “significantly inhibited the gene expression of FN and ITGA5”, the “expression of 38 ECM and adhesion genes upregulated by TGF-β (heatmap)” value (hPSCs activated by TGF-β; hPSCs activated by TGF-β, cyAV3.3 50 μmol/L, RT2 Profiler PCR array) is reported as “downregulated all the upregulated genes” and the “TGF-β-induced gene expression of ACTA2 and COL-1A1” value (hPSCs activated by TGF-β; hPSCs, 5 ng/mL TGF-β, 24 h, qPCR) is reported as “inhibited both ACTA2 and COL-1A1 concentration dependently”. The “inhibition of downstream signaling p-FAK” value ([1]; Western blot) was “more inhibition”, the “inhibition of PSC activation by TGF-β1 (expression of α-SMA and collagen-1)” value ([1]; immunostaining and Western blot) was “much stronger than AV3.3” and the “effect on cell viability” value (hPSCs) was “no toxicity”. For the same compound, the “stability of the peptides in human plasma” value [2] was “significant improvement in the stability”.
